# From US7417156B2, “Orally active, antimalarial, anticancer, artemisinin-derived trioxane dimers” (Johns Hopkins University, priority 2002, dated 2008)
# Read-outs that look alike come from different tables or passages of the source.
# Assays:
# MOLT-4 = conditions: for Log10LC50 / Log10TGI50: MOLT-4 (Leukemia); for Log10LC50: LC50: PG=−50; for Log10TGI50: TGI: PG=0
# Protocol: Growth Inhibition. […] The screening assay is performed on 96-well microtitre plates. Relatively high initial inoculation densities are used, in order to permit measurement of “time-zero” values and to enhance the screen's ability to detect and provide some differentiation between growth inhibition and cytotoxic response parameters. […] The inoculated microtitre plates are pre-incubated for 24 hours at 37° C. prior to drug additions. The five drug dilutions tested routinely range from 10^−4 to 10^−8 molar. Higher or lower concentration ranges may be selected on a non-routine basis if appropriate solubility and/or prior biological information or other screening data so dictate. Duplicate wells are prepared for all concentrations, (concentration is often denoted by placing brackets around a number); “time-zero” and “no drug” controls are also provided for each test. The minimum amount of compound required for a one-time evaluation in the routine screen can be calculated from the knowledge that each test requires a total of approximately 40 ml (0.04 liter) of cell culture medium containing the highest desired drug concentration. […] After a 48 hour incubation (37° C.) with the test compound, the cells are fixed in situ to the bottoms of the microtitre wells by addition of 50 μl of either 50% trichloroacetic acid (for adherent cell lines) or 80% trichloroacetic acid (for settled cell suspension lines), followed by incubation for 60 minutes at 4° C. The cellular protein in each well is assayed using a sulforhodamine B (SRB) stain procedure. Briefly, after discarding the supernatants, the microtitre plates are washed 5 times with deionized water and air-dried. […] Unbound SRB is removed by washing 5 times with 1% acetic acid. […] SRB is a bright pink anionic dye which, in dilute acetic acid, binds electrostatically to the basic amino acids of TCA-fixed cells. Cryopreserved master stocks of all the lines are maintained, and cultures used for screening are replaced from the master stock after no more than twenty passages in the screening laboratory. The cell line panel consists of 60 lines, organized into nine, disease-related subpanels including leukemia, non-small-cell lung cancer, colon, CNS, melanoma, ovarian, renal, prostate and breast cancers.
# At this value the increase from time tzero, in the number or mass of cells in the test well is only 50% as much as the corresponding increase in the control well during this period of the experiment, see Table III. A drug effect of this intensity is interpreted as primary growth inhibition.
# At this value the number or mass of cells in the well at the end of the experiment equals the number or mass of cells in the well at time tzero, see Table IV. A drug effect of this intensity is regarded as cytostasis.
# At this value, the number or mass of cells in the test well at the end of the experiment is half that at time tzero, see Table V. This is interpreted as cytotoxicity.
# Dose response curves, shown in the above mentioned Figures, are obtained by exposing various cancer cell lines to compounds having a known concentration ([log10M]), as discussed in detail above, and then plotting the percentage growth of each cell line for each concentration. […] Percentage growth is determined by dividing the number or mass of cells in the test well by the number or mass of cells in a control well. […] As discussed previously, the five drug dilutions routinely tested range from 10^−4 to […].
# A549/ATCC = experiment: NCI 60 cell line panel screen (SRB); type: cell-based, human; conditions: for Log10LC50 / Log10TGI50: A549/ATCC (Non-Small Cell Lung Cancer); for Log10LC50: LC50: PG=−50; for Log10TGI50: TGI: PG=0; for Log10GI50: Non-Small Cell Lung Cancer, A549/ATCC
# EKVX = experiment: NCI 60 cell line panel screen (SRB); type: cell-based, human; conditions: for Log10LC50 / Log10TGI50: EKVX (Non-Small Cell Lung Cancer); for Log10LC50: LC50: PG=−50; for Log10TGI50: TGI: PG=0; for Log10GI50: Non-Small Cell Lung Cancer, EKVX
# NCI-H322M = type: cell-based
# NCI-H522 = experiment: NCI 60 cell line panel screen (SRB); type: cell-based, human; conditions: for Log10TGI50: NCI-H522 (Non-Small Cell Lung Cancer), TGI: PG=0; for Log10LC50: NCI-H-522 (Non-Small Cell Lung Cancer), LC50: PG=−50; for Log10GI50: Non-Small Cell Lung Cancer, NCI-H522
# HT29 = experiment: NCI 60 cell line panel screen (SRB); type: cell-based, human; conditions: for Log10GI50: Colon Cancer, HT29; for Log10LC50 / Log10TGI50: HT29 (Colon Cancer); for Log10LC50: LC50: PG=−50; for Log10TGI50: TGI: PG=0
# SF-539 = experiment: NCI 60 cell line panel screen (SRB); type: cell-based, human; conditions: for Log10GI50: CNS Cancer, SF-539; for Log10LC50 / Log10TGI50: SF-539 (CNS Cancer); for Log10LC50: LC50: PG=−50; for Log10TGI50: TGI: PG=0
# UACC-257 = experiment: NCI 60 cell line panel screen (SRB); type: cell-based, human; conditions: for Log10LC50 / Log10TGI50: UACC-257 (Melanoma); for Log10LC50: LC50: PG=−50; for Log10TGI50: TGI: PG=0
# IGROVI = experiment: NCI 60 cell line panel screen (SRB); type: cell-based, human; conditions: for Log10LC50 / Log10TGI50: IGROVI (Ovarian Cancer); for Log10LC50: LC50: PG=−50; for Log10TGI50: TGI: PG=0
# OVCAR-5 = experiment: NCI 60 cell line panel screen (SRB); type: cell-based, human; conditions: for Log10LC50 / Log10TGI50: OVCAR-5 (Ovarian Cancer); for Log10LC50: LC50: PG=−50; for Log10TGI50: TGI: PG=0; for Log10GI50: Ovarian Cancer, OVCAR-5
# 786-0 = experiment: NCI 60 cell line panel screen (SRB); type: cell-based, human; conditions: for Log10LC50 / Log10TGI50: 786-0 (Renal Cancer); for Log10LC50: LC50: PG=−50; for Log10TGI50: TGI: PG=0; for Log10GI50: Renal Cancer, 786-0
# TK-10 = experiment: NCI 60 cell line panel screen (SRB); type: cell-based, human; conditions: for Log10GI50: Renal Cancer, TK-10; for Log10LC50 / Log10TGI50: TK-10 (Renal Cancer); for Log10LC50: LC50: PG=−50; for Log10TGI50: TGI: PG=0
# UO-31 = experiment: NCI 60 cell line panel screen (SRB); type: cell-based, human; conditions: for Log10GI50: Renal Cancer, UO-31; for Log10LC50 / Log10TGI50: UO-31 (Renal Cancer); for Log10LC50: LC50: PG=−50; for Log10TGI50: TGI: PG=0
# MDA-MB231/ATCC = experiment: NCI 60 cell line panel screen (SRB); type: cell-based, human; conditions: for Log10GI50: Breast Cancer, MDA-MB231/ATCC; for Log10LC50 / Log10TGI50: MDA-MB231/ATCC (Breast Cancer); for Log10LC50: LC50: PG=−50; for Log10TGI50: TGI: PG=0
# HS 578T = experiment: NCI 60 cell line panel screen (SRB); type: cell-based, human; conditions: for Log10GI50: Breast Cancer, HS 578T; for Log10LC50 / Log10TGI50: HS 578T (Breast Cancer); for Log10LC50: LC50: PG=−50; for Log10TGI50: TGI: PG=0
# MDA-MB-435 = experiment: NCI 60 cell line panel screen (SRB); type: cell-based, human; conditions: for Log10LC50 / Log10TGI50: MDA-MB-435 (Breast Cancer); for Log10LC50: LC50: PG=−50; for Log10TGI50: TGI: PG=0
# T-47D = experiment: NCI 60 cell line panel screen (SRB); type: cell-based, human; conditions: for Log10GI50: Breast Cancer, T-47D; for Log10LC50: LC50: PG=−50
smiles,measurement,setting,value
"CC1CCC2C(C)C(CC(COC(=O)CCC(=O)O)CC3OC4OC5(C)CCC6C(C)CCC(C3C)C46OO5)OC3OC4(C)CCC1C32OO4 (stereo not shown) [Compound 8a, bis-trioxane primary succinate monoester]",concentration for cytotoxicity (percentage growth −50),MOLT-4,greater than 10^−4 M
same,Log10GI50,"MOLT-4; Leukemia, MOLT-4",−8.18
same,Log10LC50,MOLT-4,>−4.30 log10M
same,Log10TGI50,MOLT-4,>−4.30 log10M
same,Log10LC50,A549/ATCC,>−4.30 log10M
same,Log10TGI50,A549/ATCC,>−4.30 log10M
same,Log10GI50,A549/ATCC,−4.42
same,Log10LC50,EKVX,>−4.30 log10M
same,Log10TGI50,EKVX,−5.47 log10M
same,Log10GI50,EKVX,−6.90
same,Log10TGI50,"NCI-H322M; NCI-H322M (Non-Small Cell Lung Cancer), TGI: PG=0",>−4.30 log10M
same,Log10GI50,"NCI-H322M; Non-Small Cell Lung Cancer, NCI-H322M",−5.11
same,Log10TGI50,NCI-H522,>−4.30 log10M
same,Log10LC50,NCI-H522,>−4.30 log10M
same,Log10GI50,NCI-H522,−6.16
same,Log10GI50,HT29,<−8.30
same,Log10LC50,HT29,>−4.30 log10M
same,Log10TGI50,HT29,>−4.30 log10M
same,Log10GI50,SF-539,−5.27
same,Log10LC50,SF-539,>−4.30 log10M
same,Log10TGI50,SF-539,>−4.30 log10M
same,Log10GI50,"UACC-257; Melanoma, UACC-257",−5.02
same,Log10LC50,UACC-257,>−4.30 log10M
same,Log10TGI50,UACC-257,>−4.30 log10M
same,Log10LC50,IGROVI,>−4.30 log10M
same,Log10TGI50,IGROVI,>−4.30 log10M
same,Log10GI50,"IGROVI; Ovarian Cancer, IGROVI",−5.07
same,Log10LC50,OVCAR-5,>−4.30 log10M
same,Log10TGI50,OVCAR-5,−6.62 log10M
same,Log10GI50,OVCAR-5,<−8.30
same,Log10LC50,786-0,>−4.30 log10M
same,Log10TGI50,786-0,>−4.30 log10M
same,Log10GI50,786-0,−6.45
same,Log10GI50,TK-10,−6.92
same,Log10LC50,TK-10,>−4.30 log10M
same,Log10TGI50,TK-10,−4.52 log10M
same,Log10GI50,UO-31,−5.46
same,Log10LC50,UO-31,>−4.30 log10M
same,Log10TGI50,UO-31,>−4.30 log10M
same,Log10GI50,MDA-MB231/ATCC,−7.19
same,Log10LC50,MDA-MB231/ATCC,>−4.30 log10M
same,Log10TGI50,MDA-MB231/ATCC,−6.35 log10M
same,Log10GI50,HS 578T,>−4.30
same,Log10LC50,HS 578T,>−4.30 log10M
same,Log10TGI50,HS 578T,>−4.30 log10M
same,Log10LC50,MDA-MB-435,>−4.30 log10M
same,Log10TGI50,MDA-MB-435,>−4.30 log10M
same,Log10GI50,T-47D,<−8.30
same,Log10LC50,T-47D; T-47D (Breast Cancer),>−4.30 log10M
same,Log10TGI50,"T-47D; T-47D (Breast Cancer), TGI: PG=0",−4.77 log10M
"CC1CCC2C(C)C(CC(O)(CC3OC4OC5(C)CCC6C(C)CCC(C3C)C46OO5)CS(=O)(=O)c3ccc(C(=O)O)cc3)OC3OC4(C)CCC1C32OO4 (stereo not drawn) [Compound 10c, bis-trioxane β-hydroxysulfone benzoic acid]",Log10LC50,MOLT-4,>−4.30 log10M
same,Log10TGI50,MOLT-4,>−4.30 log10M
same,Log10LC50,A549/ATCC,>−4.30 log10M
same,Log10TGI50,A549/ATCC,>−4.30 log10M
same,Log10GI50,A549/ATCC,−5.28
same,Log10LC50,EKVX,>−4.30 log10M
same,Log10TGI50,EKVX,−4.63 log10M
same,Log10GI50,EKVX,−4.99
same,Log10GI50,NCI-H322M,−6.03
same,Log10TGI50,NCI-H322M,−4.98 log10M
same,Log10LC50,"NCI-H322M; NCI-H322M (Non-Small Cell Lung Cancer), LC50: PG=−50",−4.57 log10M
same,Log10TGI50,NCI-H522,−4.34 log10M
same,Log10LC50,NCI-H522,>−4.30 log10M
same,Log10GI50,NCI-H522,<−8.30
same,Log10GI50,HT29,<−8.30
same,Log10LC50,HT29,>−4.30 log10M
same,Log10TGI50,HT29,>−4.30 log10M
same,Log10GI50,SF-539,−5.19
same,Log10LC50,SF-539,>−4.30 log10M
same,Log10TGI50,SF-539,−4.66 log10M
same,Log10LC50,UACC-257,>−4.30 log10M
same,Log10TGI50,UACC-257,−4.38 log10M
same,Log10LC50,IGROVI,>−4.30 log10M
same,Log10TGI50,IGROVI,>−4.30 log10M
same,Log10LC50,OVCAR-5,−4.88 log10M
same,Log10TGI50,OVCAR-5,<−8.30 log10M
same,Log10GI50,OVCAR-5,<−8.30
same,Log10LC50,786-0,−4.64 log10M
same,Log10TGI50,786-0,−5.08 log10M
same,Log10GI50,786-0,<−8.30
same,Log10GI50,TK-10,<−8.30
same,Log10LC50,TK-10,−4.62 log10M
same,Log10TGI50,TK-10,−5.40 log10M
same,Log10GI50,UO-31,−5.91
same,Log10LC50,UO-31,>−4.30 log10M
same,Log10TGI50,UO-31,>−4.30 log10M
same,Log10GI50,MDA-MB231/ATCC,<−8.30
same,Log10LC50,MDA-MB231/ATCC,−5.02 log10M
same,Log10TGI50,MDA-MB231/ATCC,<−8.30 log10M
same,Log10GI50,HS 578T,−4.82
same,Log10LC50,HS 578T,>−4.30 log10M
same,Log10TGI50,HS 578T,−4.53 log10M
same,Log10GI50,"MDA-MB-435; Breast Cancer, MDA-MB-435",<−8.30
same,Log10LC50,MDA-MB-435,−4.60 log10M
same,Log10TGI50,MDA-MB-435,−5.17 log10M
same,Log10GI50,T-47D,<−8.30
same,Log10LC50,T-47D; T-47D (Breast Cancer),>−4.30 log10M
